Source: the supplement of paper PMC5412046
Counter-ions that a name gives are not always drawn.

Test system: SB.msgc-1
Assay: AC50 for growth inhibition (viability) (log10 M); higher = less potent
Details: SB.msgc-1 (sporadic gastric cancer)
Method in brief: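 Dosing used a pintool to add 23 nL compound in DMSO to 1536 wells, each with 500 hereditary or sporadic patient-derived gastric cancer cells, across 11 threefold dilutions starting at a final 46 μM. Viability after 48 h was measured by CellTiter-Glo luminescence on a ViewLux. The log half-maximal activity concentration derives from a four-parameter fit of that viability normalised to DMSO, limited to high-quality curve classes.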

Row | SMILES | AC50 for growth inhibition (log10 M)
1 | CC1=NN(c2ccc(C)c(C)c2)C(=O)/C1=N/Nc1cccc(-c2cccc(C(=O)O)c2)c1O [Eltrombopag olamine] | -4.83
2 | C[S+](=O)([O-])c1cccc(CNc2nc(Nc3ccc4c(c3)CCC(=O)N4)ncc2C(F)(F)F)c1 | -4.78
3 | COc1cc([C@@H]2c3cc4c(cc3[C@@H](O[C@@H]3O[C@@H]5CO[C@@H](C)O[C@H]5[C@H](O)[C@H]3O)[C@H]3COC(=O)[C@H]23)OCO4)cc(OC)c1O [Etoposide] | -5.33
4 | CSCC[C@H](NC(=O)[C@H](Cc1c[nH]c2ccccc12)NC(=O)CCNC(=O)OC(C)(C)C)C(=O)N[C@@H](CC(=O)O)C(=O)N[C@@H](Cc1ccccc1)C(N)=O [Pentagastrin] | -5.28
5 | Cc1c(-c2cccc3c(CCCOc4cccc5ccccc45)c(C(=O)O)n(Cc4cccnc4)c23)c(COc2ccc(N3CCN([S+](=O)([O-])N(C)C)CC3)cc2)nn1C | -4.63
6 | OCCN(CCO)c1nc(N2CCCCC2)c2nc(N(CCO)CCO)nc(N3CCCCC3)c2n1 [Dipyridamole] | -4.68
7 | C[S+](=O)([O-])c1cc(F)cc2c3c(n(Cc4ccc(Cl)cc4)c12)[C@@H](CC(=O)O)CC3 [Laropiprant] | -5.43
8 | Fc1ccc(Cl)cc1-c1nc(Nc2ccncc2)c2nccnc2n1 [SD-208] | -4.93
9 | c1cc(N[C@@H]2CCNC2)nc(-c2cnc3ccc(-c4cn[nH]c4)cn23)c1 | -4.68
10 | CCCCC(F)(F)[C@@]1(O)CC[C@H]2[C@@H](CC(=O)[C@@H]2CCCCCCC(=O)O)O1 [Lubiprostone] | -4.78
11 | Clc3cc4CCc1cccnc1C(=C2/CCN(CC2)C(=O)OCC)\c4cc3 [Loratadine] | -4.73
12 | N#CC(c1ccnc(NCCc2cccnc2)n1)c1nc2ccccc2s1 (stereo not drawn) [JNK Inhibitor V] | -4.73
13 | CC(C)(OCc1nn(Cc2ccccc2)c2ccccc12)C(=O)O [Bindarit] | -5.08
14 | COc1cc(-c2nn(C3CCC(N4CCN(C(C)=O)CC4)CC3)c3ncnc(N)c23)ccc1NC(=O)c1cc2ccccc2n1C (stereo not drawn) | -5.28
15 | C\C1=C(\C=C(\C#N)C(=O)N1)C2=CC=NC=C2 [Milrinone] | -4.73
16 | CC(=O)O[C@H]1C[C@@H]2CC[C@@H]3[C@H](CC[C@@]4(C)[C@H]3C[C@H]([N+]3(C)CCCCC3)[C@@H]4OC(C)=O)[C@@]2(C)C[C@@H]1[N+]1(C)CCCCC1 [Pancuronium bromide] | -5.53
17 | CC1(COc2ccc3c(c2)ncn3-c2ccc3cccc(N4CCC(N)CC4)c3n2)COC1 [Crenolanib] | -7.38
18 | CC[C@]1(O)C[C@H]2CN(CCC3=C([NH]C4=C3C=CC=C4)[C@@](C2)(C(=O)OC)C5=CC6=C(C=C5OC)N(C=O)[C@H]7[C@](O)([C@H](OC(C)=O)[C@]8(CC)\C=C/C[N@@]9CC[C@]67[C@H]89)C(=O)OC)C1 [Vincristine sulfate] | -8.48
19 | Cc1c(C(=O)Nc2ccc(N3C[C@@H](C)O[C@@H](C)C3)nc2)cccc1-c1ccc(OC(F)(F)F)cc1 [NVP-LDE-225] | -4.83
20 | Cn1cc(-c2ccncc2)c(-c2ccc(OCc3ccc4ccccc4n3)cc2)n1 [MP-10] | -5.13

Row | SMILES | AC50 for growth inhibition (log10 M)
21 | O=C(NCc1ccncc1)C12C[C@H]3C[C@@H](C1)CC(c1ccc(Cl)cc1)(C3)C2 | -4.98
22 | Nc1nc(Nc2ccc([S+](N)(=O)[O-])cc2)nn1C(=O)c1c(F)cccc1F | -5.33
23 | O=C(O)c1ccc(O)c2ncc(N3CCOCC3)cc12 | -4.78
24 | N=C(CCSCc1csc(N=C(N)N)n1)N[S+](N)(=O)[O-] [Famotidine] | -4.78
25 | Cc1cccc(CN2CCN(C(c3ccccc3)c3ccc(Cl)cc3)CC2)c1 (stereo not drawn) [Meclizine hydrochloride] | -4.68
26 | CCCOc1ccc2[nH]c(NC(=O)OC)nc2c1 [Oxibendazole] | -7.83
27 | c1cc2c(cc1[C@H]1OC[C@H]3[C@@H]1CO[C@@H]3c1ccc3c(c1)OCO3)OCO2 [Sesamin] | -5.33
28 | NC/1=N/C(=O)N/C=C1F [Flucytosine] | -4.88
29 | CC[C@@H]([C@H](C)O)n1ncn(-c2ccc(N3CCN(c4ccc(OCC5CO[C@@](Cn6cncn6)(c6ccc(F)cc6F)C5)cc4)CC3)cc2)c1=O (stereo partly drawn) [Posaconazole] | -4.73
30 | OCCC#Cc1nc(-c2ccc(F)cc2)c(-c2ccncc2)n1CCCc1ccccc1 | -4.68
31 | CN(C)CCOc1ccc(-c2nc(-c3ccncc3)c(-c3ccc4c(c3)CC/C4=N\O)[nH]2)cc1 | -4.68
32 | CN(C)[C@H]\1[C@@H]2[C@@H](O)[C@@H]\3C(=C)C4=C(C(=CC=C4)O)C(=O)C3=C(\O)[C@@]2(O)C(=O)\C(=C1O)C(N)=O [Methacycline hydrochloride] | -4.73
33 | O=[N+]([O-])c1cn2c(n1)OC[C@@H](OCc1ccc(OC(F)(F)F)cc1)C2 [PA-824] | -5.33
34 | Clc1ccccc1C(c1ccccc1)(c1ccccc1)n1cccn1 [TRAM-34] | -5.88
35 | O=C(CCCN1CCN(c2ccc(F)cc2)CC1)NC1c2ccccc2CSc2ccccc21 (stereo not drawn) [Monatepil] | -5.23
36 | O=C(O)C(=O)c1cn(Cc2ccccc2)c2ccc(-c3ccc(OC(F)(F)F)cc3)cc12 [Tiplasinin] | -5.13
37 | CC(C)CN(C[C@@H](O)[C@H](Cc1ccccc1)NC(=O)O[C@H]1CO[C@H]2OCC[C@H]21)S(=O)(=O)c1ccc(N)cc1 [Darunavir] | -5.63
38 | CC(C)(Sc1cc(C(C)(C)C)c(O)c(C(C)(C)C)c1)Sc1cc(C(C)(C)C)c(O)c(C(C)(C)C)c1 [Probucol] | -5.58
39 | CC(C)(C)[C@]1(O)C[C@@H]2OC(=O)C[C@@]23C(=O)O[C@@H]2OC(=O)[C@H](O)C213 (stereo partly drawn) [Bilobalide] | -4.93
40 | Clc1ccc(CCC(Cn2ccnc2)Sc2c(Cl)cccc2Cl)cc1 (stereo not drawn) [Butoconazole nitrate] | -4.68

Row | SMILES | AC50 for growth inhibition (log10 M)
41 | CC(C)(C)OC(=O)Nc1ccc(-c2cc(C(=O)NCCCCCCC(=O)NO)no2)cc1 [ISOX] | -5.58
42 | CC1(C)Cc2c(-c3ccccc3)c(-c3ccc(Cl)cc3)c(CC(=O)O)n2C1 [Licofelone] | -4.73
43 | CCC[C@H](Nc1nc(-c2ccc(NC(=O)NCC)c(OC)c2)ncc1C)c1cccnc1 [Lexibulin hydrochloride] | -7.83
44 | COc1cc2c(cc1O)CCC1C2CC[C@@]2(C)C1CC[C@@H]2O (stereo partly drawn) [2-Methoxyestradiol] | -5.33
45 | Cc1cc(-c2ccc(CC(=O)Nc3ccc(-c4cccnc4)cc3)cc2)ccn1 [Wnt-C59] | -4.78
46 | CS[C@H]1SC[C@@H]2C(=O)N(C)[C@H](C(C)C)C(=O)OC[C@H](NC(=O)c3cnc4ccccc4n3)C(=O)N[C@H](C)C(=O)N(C)[C@H]1C(=O)N(C)[C@H](C(C)C)C(=O)OC[C@H](NC(=O)c1cnc3ccccc3n1)C(=O)N[C@H](C)C(=O)N2C [Echinomycin] | -8.33
47 | COc1ccc(C(=O)N2CCCC2=O)cc1 [Aniracetam] | -4.68
48 | C[C@H]1CC2C3CCC/4=C/C(=O)/C=C\[C@]4(C)[C@@]3(F)[C@@H](O)C[C@]2(C)[C@@]1(O)C(=O)CO (stereo partly drawn) [Betamethasone] | -4.88
49 | O=C(Nc1nc2cccc(-c3ccc(CN4CC[S+](=O)([O-])CC4)cc3)n2n1)C1CC1 [GPLG-0634] | -4.73
50 | CCC(C)(C)C(=O)O[C@H]1C[C@@H](C)\C=C2\C=C/[C@H](C)[C@H](CC[C@@H]3C[C@@H](O)CC(=O)O3)[C@@H]12 [Simvastatin] | -4.78
51 | CC(C)(C)OC(=O)CN(Cc1ccc(Cl)cc1)Cc1ccc([N+](=O)[O-])s1 [GSK-4112] | -4.68
52 | CC(C)c1ccc(Cn2ccc3c4c(N)nc(NC5CC5)nc4ccc32)cc1 | -5.78
53 | FC1=CC=C(CN2\C=C/C=C(/C(=O)N[C@@H](COC3=CC4=C(NC(=O)N4)C=C3)C5=CC=CC=C5)C2=O)C=C1F [PDK1 inhibitor] | -4.68
54 | Clc1ccc(C(c2ccc(Cl)cc2)[n+]2ccn(CC(OCc3ccc(Cl)cc3Cl)c3ccc(Cl)cc3Cl)c2)cc1 (stereo not drawn) [Calmidazolium chloride] | -4.68
55 | O=C(O)c1ccc(-c2c[nH]c3ncc(-c4ccccc4)cc23)cc1C1CCCC1 | -6.28
56 | C=C1C(=O)OC2/C=C(/C)CC/C=C(/C)CCC12 (stereo not drawn) [Costunolide] | -4.68
57 | CN(CC#C)C/C1=C/C2=CC=CC=C2OC3=CC=CC=C13 [Omigapil] | -4.63
58 | CC(C(=O)O)c1cccc(C(=O)c2ccccc2)c1 (stereo not drawn) [Ketoprofen] | -5.03
